How the values were obtained:
BRD4-1 = BRD4-1 (Homo sapiens (Human), UniProt O60885); experiment: Bromodomain and Extraterminal Domain (BET) Binding Assay; conditions: Table 3; read-out: BRD4-1 IC50
Description: (§1) The bromodomain binding assays were performed by Reaction Biology Corp., Malvern, Pa., USA (www.reactionbiology.com). The BET binding assays were conducted in 384 well microplates in assay buffer (50 mM HEPES-HCl, pH 7.5, 100 mM NaCl, 1 mg/ml BSA, 0.05% CHAPS, and 0.5% DMSO) with compounds added as DMSO stocks at a single concentration or with 10-point dose response titrations. BET protein or assay buffer were delivered to the appropriate wells of the microplate. Test compound was then delivered by acoustic technology via a Labcyte Echo550 liquid handler. The microplate was centrifuged for 5 min and pre-incubated for 30 min at RT with gentle shaking. The ligand (histone H4 peptide (1-21) K5/8/12/16Ac-biotin) was delivered and the microplate was again centrifuged for 5 min and allowed to incubate for 30 min at RT with gentle shaking. Donor beads were then added in the absence of light and the microplate was centrifuged and gently shaken. After 5 min, acceptor beads were added in the absence of light and the microplate was centrifuged and gently shakenin the dark for 60 min. The microplate was read using a Perkin Elmer EnSpire Alpha plate reader (λEx/λEm=680/520-620 nm). Percent inhibition was calculated relative to positive and negative controls on a per plate basis. For titration experiments, IC50 values were determined by fitting the percent inhibition versus compound concentration.

BRD4-2 = BRD4-2 (Homo sapiens (Human), UniProt O60885); experiment: as above; conditions: Table 3; read-out: BRD4-2 IC50
Description: as §1

[1] = tested on: MV-4-11 human acute myeloid leukemia cell line; experiment: Second cell viability assay in MV-4-11 (Cell Titer-Glo); format: cell-based; conditions: Homo sapiens; MV4-11, Cell Titer-Glo, 72 hrs; read-out: Cell Viability IC50 in MV4-11 cells
Description: The effects of test compounds were studied in a second cell viability assay in the MV-4-11 human acute myeloid leukemia cell line. The cells were harvested during the logarithmic growth period and counted. Cells were seeded at a count of 15000 cells per well/100 μl. After seeding, cells were incubated at 37° C., 5% CO2 for 1 hr. Cells were treated with test compounds at 8 concentrations within a desired concentration range (e.g. 5 nM-[…]) for generation of dose response curves by preparing serial dilutions of the test compound in DMSO which were further diluted with culture medium and then added to each well. The plate was further incubated for another 72 hrs in a humidified incubator at 37° C. and 5% CO2. The assay was terminated by addition of Cell Titer-Glo reagent (Promega, Madison, Wis.) at ¼ the volume of total medium per well. Contents were mixed, the plate was incubated for 10 min at room temperature and luminescence was measured. Cell viability data were plotted using GraphPad Prism (GraphPad Software, Inc., San Diego, Calif.). In addition, a nonlinear regression model with a sigmoidal dose response and variable slope within GraphPad Prism was used to calculate the IC50 value of individual test compounds.

c-Myc = experiment: Measurement of c-Myc suppression after washoff (Western blot); format: cell-based, human; conditions: MV4-11, 2 μM for 2 hr, washed, further 6 hr
Description: MV4-11 cells were incubated with 2 μM of JQ1, mivebresib or a test compound for 2 hr. The cells were then washed twice with fresh culture medium and further cultured for another 6 hr. Cells were extracted with SDS sample buffers and then subjected to Western blot analysis to measure c-Myc. Compounds 2, 3, 12, 17, 409, 411 and 412 were tested in these assays.

With `C=CC(=O)Nc1ccc(Oc2c(C)cccc2C)c(-c2cn(C)c(=O)cc2OC(C)C)c1` [Compound 589, N-(4-(2,6-dimethylphenoxy)-3-(4-isopropoxy-1-methyl-6-oxo-1,6-dihydropyridin-3-yl)phenyl)acrylamide] the IC50 (BRD4-1) was 7190 nM, the IC50 (BRD4-2) was 12 nM and the IC50 [1] was 181 nM.

`CCS(=O)(=O)Nc1ccc(Oc2ccc(F)cc2F)c(-c2cn(C)c(=O)c3[nH]ccc23)c1` [mivebresib, reference compound] was tested, and the “c-Myc suppression activity after washoff” value (c-Myc) was “rebound in c-Myc expression”.

Work on `C=CC(=O)Nc1ccc(Oc2c(C)cccc2C)c(-c2cn(C)c(=O)c3sc(C(=O)NCC)cc23)c1` [Compound 381, 4-(5-acrylamido-2-(2,6-dimethylphenoxy)phenyl)-N-ethyl-6-methyl-7-oxo-6,7-dihydrothieno[2,3-c]pyridine-2-carboxamide] yielded an IC50 (BRD4-1) of 12500 nM, an IC50 (BRD4-2) of 13 nM and an IC50 [1] of 172 nM.

Work on `C=CC(=O)Nc1ccc(Oc2ccc(F)cc2F)c(-c2cc(NC)c(=O)n(C)c2)c1` [Compound 1, N-(4-(2,4-difluorophenoxy)-3-(1-methyl-5-(methylamino)-6-oxo-1,6-dihydropyridin-3-yl)phenyl)acrylamide] yielded an IC50 (BRD4-1) of 188 nM and an IC50 (BRD4-2) of 64 nM.

`C=CC(=O)Nc1ccc(Oc2c(C)cccc2C)c(-c2cn(C)c(=O)c3cc(C(=O)NCC)sc23)c1` [Compound 412, 7-(5-acrylamido-2-(2,6-dimethylphenoxy)phenyl)-N-ethyl-5-methyl-4-oxo-4,5-dihydrothieno[3,2-c]pyridine-2-carboxamide] gave an IC50 (BRD4-1) of 1740 nM, an IC50 (BRD4-2) of 4 nM and an IC50 [1] of 25 nM. The “c-Myc suppression activity after washoff” value (c-Myc) was “less durable or no suppression activity”.

With `C=CS(=O)(=O)Nc1ccc(Oc2ccc(F)cc2F)c(-c2cc(N(C)C)c(=O)n(C)c2)c1` [Compound 16, N-(4-(2,4-difluorophenoxy)-3-(5-(dimethylamino)-1-methyl-6-oxo-1,6-dihydropyridin-3-yl)phenyl)ethenesulfonamide] the IC50 (BRD4-1) was 6 nM and the IC50 (BRD4-2) was 26 nM.

For `C/C=C/S(=O)(=O)Nc1ccc(Oc2ccc(F)cc2F)c(-c2cn(C)c(=O)c3ccccc23)c1` [Compound 86, (E)-N-(4-(2,4-difluorophenoxy)-3-(2-methyl-1-oxo-1,2-dihydroisoquinolin-4-yl)phenyl)prop-1-ene-1-sulfonamide], the IC50 (BRD4-2) was 80 nM and the IC50 [1] was 273 nM.

`C=CC(=O)Nc1ccc(Oc2c(F)cccc2F)c(-c2cn(C)c(=O)c3ccccc23)c1` [Compound 583, N-(4-(2,6-difluorophenoxy)-3-(2-methyl-1-oxo-1,2-dihydroisoquinolin-4-yl)phenyl)acrylamide] showed an IC50 (BRD4-2) of 78 nM and an IC50 [1] of 254 nM.

`C=CC(=O)Nc1ccc(Oc2ccc(F)cc2)c(-c2cc(NC)c(=O)n(C)c2)c1` [Compound 30, N-(4-(4-fluorophenoxy)-3-(1-methyl-5-(methylamino)-6-oxo-1,6-dihydropyridin-3-yl)phenyl)acrylamide] showed an IC50 (BRD4-1) of 104 nM and an IC50 (BRD4-2) of 57 nM.

Molecule `C=CC(=O)Nc1ccc(Nc2c(C)cccc2C)c(-c2cn(C)c(=O)c3ccccc23)c1` [Compound 313, N-(4-(2,6-dimethylphenylamino)-3-(2-methyl-1-oxo-1,2-dihydroisoquinolin-4-yl)phenyl)acrylamide] has an IC50 (BRD4-1) greater than 10000 nM and an IC50 (BRD4-2) of 885 nM.

For `C/C=C/C(=O)Nc1ccc(Oc2c(C)cccc2C)c(-c2cn(C)c(=O)c3cc(C(=O)NCC)sc23)c1` [Compound 611, (E)-7-(5-but-2-enamido-2-(2,6-dimethylphenoxy)phenyl)-N-ethyl-5-methyl-4-oxo-4,5-dihydrothieno[3,2-c]pyridine-2-carboxamide], the IC50 (BRD4-1) was 7370 nM and the IC50 (BRD4-2) was 2 nM.

`C=CS(=O)(=O)Nc1ccc(Oc2ccc(F)cc2F)c(-c2cc(N)c(=O)n(C)c2)c1` [Compound 17, N-(3-(5-amino-1-methyl-6-oxo-1,6-dihydropyridin-3-yl)-4-(2,4-difluorophenoxy)phenyl)ethenesulfonamide] was tested, and the IC50 (BRD4-2) was 119 nM, the IC50 [1] was 84 nM and the “c-Myc suppression activity after washoff” value (c-Myc) was “sustained c-Myc suppression activity”.

Work on `C=CC(=O)Nc1ccc(Oc2c(C)cccc2C)c(-c2cn(C)c(=O)c3ccccc23)c1` [Compound 397, N-(4-(2,6-dimethylphenoxy)-3-(2-methyl-1-oxo-1,2-dihydroisoquinolin-4-yl)phenyl)acrylamide] yielded an IC50 (BRD4-1) of 9710 nM and an IC50 (BRD4-2) of 549 nM.

Work on `C=CC(=O)Nc1ccc(Oc2ccc(F)cc2F)c(-c2cc(N(C)C)c(=O)n(C)c2)c1` [Compound 29, N-(4-(2,4-difluorophenoxy)-3-(5-(dimethylamino)-1-methyl-6-oxo-1,6-dihydropyridin-3-yl)phenyl)acrylamide] yielded an IC50 (BRD4-1) of 30 nM and an IC50 (BRD4-2) of 15 nM.

For `C=CC(=O)Nc1ccc(Oc2ccc(F)cc2F)c(-n2cc(C)c(=O)c3ccccc32)c1` [Compound 613, N-(4-(2,4-difluorophenoxy)-3-(3-methyl-4-oxoquinolin-1(4H)-yl)phenyl)acrylamide], the IC50 (BRD4-2) was 27 nM and the IC50 [1] was 6020 nM.

Work on `C=CC(=O)Nc1ccc(Oc2c(C)cc(F)cc2C)c(-c2cc(NC)c(=O)n(C)c2)c1` [Compound 167, N-(4-(4-fluoro-2,6-dimethylphenoxy)-3-(1-methyl-5-(methylamino)-6-oxo-1,6-dihydropyridin-3-yl)phenyl)acrylamide] yielded an IC50 (BRD4-1) of 424 nM, an IC50 (BRD4-2) of 17 nM and an IC50 [1] of 97 nM.

`C#CC(=O)Nc1ccc(Oc2c(C)cccc2C)c(-c2cn(C)c(=O)c3cc(C(=O)NCC)sc23)c1` [Compound 587, 7-(2-(2,6-dimethylphenoxy)-5-propiolamidophenyl)-N-ethyl-5-methyl-4-oxo-4,5-dihydrothieno[3,2-c]pyridine-2-carboxamide] showed an IC50 (BRD4-2) of 11 nM and an IC50 [1] of 45 nM.

With `C=CS(=O)(=O)Nc1ccc(Oc2ccc(OC)cc2)c(-c2cn(C)c(=O)c3ccccc23)c1` [Compound 12, N-(4-(4-methoxyphenoxy)-3-(2-methyl-1-oxo-1,2-dihydroisoquinolin-4-yl)phenyl)ethenesulfonamide] the IC50 (BRD4-2) was 37 nM and the “c-Myc suppression activity after washoff” value (c-Myc) was “less durable or no suppression activity”.

`C=CC(=O)Nc1ccc(Nc2ccc(F)cc2F)c(-c2cn(C)c(=O)c3ccccc23)c1` [Compound 305, N-(4-(2,4-difluorophenylamino)-3-(2-methyl-1-oxo-1,2-dihydroisoquinolin-4-yl)phenyl)acrylamide] was tested, and the IC50 (BRD4-1) was 1710 nM and the IC50 (BRD4-2) was 2170 nM.

For `C=CC(=O)Nc1ccc(Oc2c(C)cc(F)cc2C)c(-c2cn(C)c(=O)c3ccccc23)c1` [Compound 408, N-(4-(4-fluoro-2,6-dimethylphenoxy)-3-(2-methyl-1-oxo-1,2-dihydroisoquinolin-4-yl)phenyl)acrylamide], the IC50 (BRD4-1) was 15900 nM and the IC50 (BRD4-2) was 434 nM.

`C#CC(=O)Nc1ccc(Oc2ccc(F)cc2F)c(-c2cc(NC)c(=O)n(C)c2)c1` [Compound 2, N-(4-(2,4-difluorophenoxy)-3-(1-methyl-5-(methylamino)-6-oxo-1,6-dihydropyridin-3-yl)phenyl)propiolamide] was tested, and the IC50 (BRD4-1) was 52 nM, the IC50 (BRD4-2) was 117 nM and the “c-Myc suppression activity after washoff” value (c-Myc) was “less durable or no suppression activity”.

For `CCS(=O)(=O)Nc1ccc(Oc2ccc(F)cc2F)c(-n2cc(C)c(=O)c3ccccc32)c1` [Compound 616, N-(4-(2,4-difluorophenoxy)-3-(3-methyl-4-oxoquinolin-1(4H)-yl)phenyl) ethanesulfonamide], the IC50 (BRD4-1) was 11 nM, the IC50 (BRD4-2) was 4 nM and the IC50 [1] was 38 nM.

Work on `C=CC(=O)Nc1ccc(Oc2ccc(F)cc2)c(-c2cn(C)c(=O)c3ccccc23)c1` [Compound 26, N-(4-(4-fluorophenoxy)-3-(2-methyl-1-oxo-1,2-dihydroisoquinolin-4-yl)phenyl)acrylamide] yielded an IC50 (BRD4-2) of 281 nM.

Molecule `C=CC(=O)Nc1ccc(Nc2ccc(C)cc2)c(-c2cn(C)c(=O)c3ccccc23)c1` [Compound 309, N-(3-(2-methyl-1-oxo-1,2-dihydroisoquinolin-4-yl)-4-(p-tolylamino)phenyl) acrylamide] has an IC50 (BRD4-2) of 2120 nM.

Molecule `C=CC(=O)Nc1ccc(OC(C)C)c(-c2cc(NC)c(=O)n(C)c2)c1` [Compound 24, N-(4-isopropoxy-3-(1-methyl-5-(methylamino)-6-oxo-1,6-dihydropyridin-3-yl)phenyl)acrylamide] has an IC50 (BRD4-2) of 779 nM.

Source: patent US11192900B2, “Substituted 1,6-dihydropyridinones and 1,2-dihydroisoquinolinones as bet inhibitors” (NUVATION BIO INC., priority 2018, dated 2021)
